In patent publication US8293770B2, “Pyrrolidine derivatives as NK-3 receptor antagonists” (Hoffmann-La Roche Inc., priority 2008, dated 2012):

Target: T1, recombinant human NK3 receptor (Homo sapiens, UniProt P29371)
T1 construct: expressed in transfected cells; host or cells: HEK293 cells (transient expression), membranes
T1 sequence (P29371 1-465): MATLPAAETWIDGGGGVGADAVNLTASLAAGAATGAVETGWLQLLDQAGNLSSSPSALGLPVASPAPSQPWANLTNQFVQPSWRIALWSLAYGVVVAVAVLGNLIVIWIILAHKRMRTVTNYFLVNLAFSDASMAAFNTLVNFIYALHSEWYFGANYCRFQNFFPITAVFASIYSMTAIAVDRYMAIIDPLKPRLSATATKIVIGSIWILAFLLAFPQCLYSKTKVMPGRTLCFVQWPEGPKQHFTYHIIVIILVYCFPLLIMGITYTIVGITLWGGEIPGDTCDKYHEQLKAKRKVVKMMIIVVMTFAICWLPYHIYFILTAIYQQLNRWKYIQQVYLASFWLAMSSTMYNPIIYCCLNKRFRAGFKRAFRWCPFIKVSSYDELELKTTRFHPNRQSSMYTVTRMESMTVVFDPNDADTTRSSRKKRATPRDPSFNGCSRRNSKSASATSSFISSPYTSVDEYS
Assay: [3H]SR142801 competition binding assay
Conditions: hNK3 receptor binding, [3H]SR142801, membranes from HEK293 cells transiently expressing recombinant human NK3 receptor
Method: [^3H]SR142801 competition binding assay
hNK3 receptor binding experiment were performed using [^3H]SR142801 (Catalog No. TRK1035, specific activity: 74.0 Ci/mmol, Amersham, GE Healthcare UK limited, Buckinghamshire, UK) and membrane isolated from HEK293 cells transiently expressing recombinant human NK3 receptor. After thawing, the membrane homogenates were centrifuged at 48,000×g for 10 min at 4° C., the pellets were resuspended in the 50 mM Tris-HCl, 4 mM MnCl2, 1 μM phosphoramidon, 0.1% BSA binding buffer at pH 7.4 to a final assay concentration of 5 μg protein/well. […] At the end of the incubation, membranes were filtered onto unitfilter (96-well white microplate with bonded GF/C filter preincubated 1 h in 0.3% PEI+0.3% BSA, Packard BioScience, Meriden, Conn.) with a Filtermate 196 harvester (Packard BioScience) and washed 4 times with ice-cold 50 mM Tris-HCl, pH 7.4 buffer. Nonspecific binding was measured in the presence of 10 μM SB222200 for both radioligands. The radioactivity on the filter was counted (5 min) on a Packard Top-count microplate scintillation counter with quenching correction after addition of 45 μl of microscint 40 (Canberra Packard S. A., Zürich, Switzerland) and shaking for 1 h. Inhibition curves were fitted according to the Hill equation: y=100/(1+(x/IC50)^nH), where nH=slope factor using Excel-fit 4 software (Microsoft). IC50 values were derived from the inhibition curve and the affinity constant (Ki) values were calculated using the Cheng-Prussoff equation Ki=IC50/(1+[L]/KD) where [L] is the concentration of radioligand and KD is its dissociation constant at the receptor, derived from the saturation isotherm. All experiments were performed in duplicate and the mean±standard error (SEM) of the individual Ki values was calculated.

Row | Ki | Compound
1 | 0.0056 µM | CN(Cc1ccc(C(F)(F)F)c(F)c1)[C@H]1CN(C(=O)c2ccc(-c3cccnc3)cc2)C[C@@H]1c1ccc(Cl)c(Cl)c1 (racemic) [Example 44, {(3SR,4RS)-3-(3,4-Dichloro-phenyl)-4-[(3-fluoro-4-trifluoromethyl-benzyl)-methyl-amino]-pyrrolidin-1-yl}-(4-pyridin-3-yl-phenyl)-methanone]
2 | 0.0025 µM | CN(Cc1ccc(C(F)(F)F)c(F)c1)[C@H]1CN(C(=O)c2ccc(-c3ccncc3)cc2)C[C@@H]1c1ccc(Cl)c(Cl)c1 (racemic) [Example 45, {(3SR,4RS)-3-(3,4-Dichloro-phenyl)-4-[(3-fluoro-4-trifluoromethyl-benzyl)-methyl-amino]-pyrrolidin-1-yl}-(4-pyridin-4-yl-phenyl)-methanone]
3 | 0.0023 µM | CN(Cc1ccc(C(F)(F)F)c(F)c1)[C@H]1CN(C(=O)c2ccc(-c3nnco3)cc2)C[C@@H]1c1ccc(Cl)c(Cl)c1 (racemic) [Example 47, {(3SR,4RS)-3-(3,4-Dichloro-phenyl)-4-[(3-fluoro-4-trifluoromethyl-benzyl)-methyl-amino]-pyrrolidin-1-yl}-(4-[1,3,4]oxadiazol-2-yl-phenyl)-methanone]
4 | 0.0478 µM | CN(Cc1ccc(C(F)(F)F)c(F)c1)[C@H]1CN(C(=O)c2ccc(O)nc2)C[C@@H]1c1ccc(Cl)c(Cl)c1 (racemic) [Example 48, {(3SR,4RS)-3-(3,4-Dichloro-phenyl)-4-[(3-fluoro-4-trifluoromethyl-benzyl)-methyl-amino]-pyrrolidin-1-yl}-(6-hydroxy-pyridin-3-yl)-methanone]
5 | 0.0146 µM | CN(Cc1ccc(C(F)(F)F)c(F)c1)[C@H]1CN(C(=O)c2ccc3cnccc3n2)C[C@@H]1c1ccc(Cl)c(Cl)c1 (racemic) [Example 51, {(3SR,4RS)-3-(3,4-Dichloro-phenyl)-4-[(3-fluoro-4-trifluoromethyl-benzyl)-methyl-amino]-pyrrolidin-1-yl}-[1,6]naphthyridin-2-yl-methanone]
6 | 0.0223 µM | COc1ncc(C(=O)N2C[C@H](c3ccc(Cl)c(Cl)c3)[C@@H](N(C)Cc3ccc(C(F)(F)F)c(F)c3)C2)cn1 (racemic) [Example 57, {(3SR,4RS)-3-(3,4-Dichloro-phenyl)-4-[(3-fluoro-4-trifluoromethyl-benzyl)-methyl-amino]-pyrrolidin-1-yl}-(2-methoxy-pyrimidin-5-yl)-methanone]
7 | 0.0318 µM | CN(Cc1ccc(C(F)(F)F)c(F)c1)[C@H]1CN(C(=O)c2ccc3nn[nH]c3c2)C[C@@H]1c1ccc(Cl)c(Cl)c1 (racemic) [Example 59, (3H-Benzotriazol-5-yl)-{(3SR,4RS)-3-(3,4-dichloro-phenyl)-4-[(3-fluoro-4-trifluoromethyl-benzyl)-methyl-amino]-pyrrolidin-1-yl}-methanone]
8 | 0.0173 µM | CN(Cc1ccc(C(F)(F)F)c(F)c1)[C@H]1CN(C(=O)c2ccc3nc[nH]c3c2)C[C@@H]1c1ccc(Cl)c(Cl)c1 (racemic) [Example 60, (3H-Benzoimidazol-5-yl)-{(3SR,4RS)-3-(3,4-dichloro-phenyl)-4-[(3-fluoro-4-trifluoromethyl-benzyl)-methyl-amino]-pyrrolidin-1-yl}-methanone]
9 | 0.0373 µM | CC(=O)Nc1ccc(C(=O)N2C[C@H](c3ccc(Cl)c(Cl)c3)[C@@H](N(C)Cc3ccc(C(F)(F)F)c(F)c3)C2)cc1 (racemic) [Example 61, N-(4-{(3SR,4RS)-3-(3,4-Dichloro-phenyl)-4-[(3-fluoro-4-trifluoromethyl-benzyl)-methyl-amino]-pyrrolidine-1-carbonyl}-phenyl)-acetamide]
10 | 0.0247 µM | CN(Cc1ccc(C(F)(F)F)c(F)c1)[C@H]1CN(C(=O)c2ccc(N3CCN(C(=O)OC(C)(C)C)CC3)nc2)C[C@@H]1c1ccc(Cl)c(Cl)c1 (racemic) [Example 63, 4-(5-{(3SR,4RS)-3-(3,4-Dichloro-phenyl)-4-[(3-fluoro-4-trifluoromethyl-benzyl)-methyl-amino]-pyrrolidine-1-carbonyl}-pyridin-2-yl)-piperazine-1-carboxylic acid tert-butyl ester]
11 | 0.002 µM | CN(Cc1ccc(C(F)(F)F)c(F)c1)[C@H]1CN(C(=O)c2ccc(N3CCS(=O)(=O)CC3)nc2)C[C@@H]1c1ccc(Cl)c(Cl)c1 (racemic) [Example 64, {(3SR,4RS)-3-(3,4-Dichloro-phenyl)-4-[(3-fluoro-4-trifluoromethyl-benzyl)-methyl-amino]-pyrrolidin-1-yl}-[6-(1,1-dioxo-1-6-thiomorpholin-4-yl)-pyridin-3-yl]-methanone]
12 | 0.0126 µM | CN(Cc1ccc(C(F)(F)F)c(F)c1)[C@H]1CN(C(=O)c2ccc(C#N)cc2)C[C@@H]1c1ccc(Cl)c(F)c1 (racemic) [Example 66, 4-{(3SR,4RS)-3-(4-Chloro-3-fluoro-phenyl)-4-[(3-fluoro-4-trifluoromethyl-benzyl)-methyl-amino]-pyrrolidine-1-carbonyl}-benzonitrile]
13 | 0.0045 µM | CN(Cc1ccc(C(F)(F)F)c(F)c1)[C@H]1CN(C(=O)c2ccc(-c3cnco3)cc2)C[C@@H]1c1ccc(Cl)c(Cl)c1 (racemic) [Example 67, {(3SR,4RS)-3-(3,4-Dichloro-phenyl)-4-[(3-fluoro-4-trifluoromethyl-benzyl)-methyl-amino]-pyrrolidin-1-yl}-(4-oxazol-5-yl-phenyl)-methanone]
14 | 0.0146 µM | CN(Cc1ccc(C(F)(F)F)cc1)[C@H]1CN(C(=O)c2ccc(C#N)cc2)C[C@@H]1c1ccc(Cl)c(Cl)c1 (racemic) [Example 68, 4-{(3SR,4RS)-3-(3,4-Dichloro-phenyl)-4-[methyl-(4-trifluoromethyl-benzyl)-amino]-pyrrolidine-1-carbonyl}-benzonitrile]

Test system: not given
Assay: not given
Conditions: phase II trial; altered behavior, delusion, hallucinations, extreme emotions, excited motor activity, incoherent speech; cited from earlier work

Row | Compound | activity on positive symptoms of schizophrenia
15 | CC(=O)N(C)C1(c2ccccc2)CCN(CCC[C@]2(c3ccc(Cl)c(Cl)c3)CCCN(C(=O)c3ccccc3)C2)CC1 [SR 142,801, Osanetant] | active

Same assay, conditions: phase II trial; depression, anhedonia, social isolation or memory and attention deficits; cited from earlier work

Row | Compound | activity in the treatment of negative symptoms
16 | CC(=O)N(C)C1(c2ccccc2)CCN(CCC[C@]2(c3ccc(Cl)c(Cl)c3)CCCN(C(=O)c3ccccc3)C2)CC1 [SR 142,801, Osanetant] | inactive
